How the values were obtained:
[1] = Half life in phosphate buffered saline at pH 7.4; format: physicochemical
Pseudomonas sp. [2] = assay: Activity of Pseudomonas sp. carboxypeptidase G2 assessed as compound hydrolysis by Michaelis-Menten plot analysis
Pseudomonas sp. [3] = assay: Activity of Pseudomonas sp. carboxypeptidase G2 assessed as half life of compound hydrolysis by UV spectrophotometric analysis
Pseudomonas sp. [4] = assay: Ratio of Kcat to Km for Pseudomonas sp. carboxypeptidase G2
Albumin = Albumin (Homo sapiens, UniProt P02768); assay: Binding affinity to human serum albumin by HPLC analysis; format: ADME; details: isolated protein
Chain of Albumin (P02768 whole entry): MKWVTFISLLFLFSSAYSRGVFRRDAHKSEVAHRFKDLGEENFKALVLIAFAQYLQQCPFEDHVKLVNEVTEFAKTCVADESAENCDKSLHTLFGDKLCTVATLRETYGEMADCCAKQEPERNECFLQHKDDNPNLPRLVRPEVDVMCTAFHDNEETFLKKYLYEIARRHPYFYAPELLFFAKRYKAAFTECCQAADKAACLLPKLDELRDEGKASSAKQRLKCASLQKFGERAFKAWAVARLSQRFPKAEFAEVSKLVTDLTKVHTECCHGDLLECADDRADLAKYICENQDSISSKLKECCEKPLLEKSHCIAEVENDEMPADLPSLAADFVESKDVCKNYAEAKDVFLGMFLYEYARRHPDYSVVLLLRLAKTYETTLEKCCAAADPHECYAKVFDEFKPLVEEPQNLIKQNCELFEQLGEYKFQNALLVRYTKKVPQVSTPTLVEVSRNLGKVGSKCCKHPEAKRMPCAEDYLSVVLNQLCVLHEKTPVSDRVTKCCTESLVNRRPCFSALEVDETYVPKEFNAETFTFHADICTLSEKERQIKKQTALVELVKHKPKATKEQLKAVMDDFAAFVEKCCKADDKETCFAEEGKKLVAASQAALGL

[5] = Protein binding in human plasma; format: ADME, cell-free; details: read-out: PPB (converted)

| SMILES | half-life [1] [h] | also measured |
| --- | --- | --- |
| CN(C(=O)OCc1ccc(NC(=O)N[C@@H](CCC(=O)O)C(=O)O)cc1)c1ccc(N(CCBr)CCBr)cc1 | < 0.0667 | – |
| CCOC(=O)c1ccc(/N=N/N(C)C(=O)N[C@@H](CCC(=O)O)C(=O)O)cc1 | 2.89 | Km (Pseudomonas sp. [2]): 2.73 µM; Vmax (Pseudomonas sp. [2]): 1.18 µM/min; kcat (Pseudomonas sp. [2]): 1.11 s⁻¹; T1/2 (Pseudomonas sp. [3]): 5.7 min; kcat/Km (Pseudomonas sp. [4]): 410000 M⁻¹ s⁻¹ |
| CN(/N=N/c1ccc(Br)cc1)C(=O)N[C@@H](CCC(=O)O)C(=O)O | 3.66 | Activity (Albumin): Active |
| Cc1ccc(/N=N/N(C)C(=O)N[C@@H](CCC(=O)O)C(=O)O)cc1 | 7.63 | – |
| Cc1cc(NC(=O)Nc2ccc(N(CCCl)CCCl)cc2)c2ccccc2n1 | 16.5 | – |
| CC(=O)c1ccc(/N=N/N(C)C(=O)N[C@@H](CCC(=O)O)C(=O)O)cc1 | 0.0433 | – |
| O=C(O)CC[C@H](NC(=O)Nc1ccc(COC(=O)Nc2ccc(N(CCI)CCI)cc2N(CCI)CCI)cc1)C(=O)O | < 0.0667 | – |
| O=C(O)CC[C@H](NC(=O)Nc1ccc(COC(=O)Nc2ccc(N(CCBr)CCBr)cc2N(CCBr)CCBr)cc1)C(=O)O | < 0.0667 | – |
| O=C(O)CC[C@H](NC(=O)Nc1ccc(N(CCCl)CCCl)cc1)C(=O)O | 0.28 | Km (Pseudomonas sp. [2]): 3 µM |
| O=C(O)CC[C@H](NC(=O)c1ccc(N(CCCl)CCCl)cc1)C(=O)O | – | fraction unbound [5]: 0.08 |
| CN(C(=O)OCc1ccc(NC(=O)N[C@@H](CCC(=O)O)C(=O)O)cc1)c1ccc(N(CCCl)CCCl)cc1 | – | Km (Pseudomonas sp. [2]): 6.1 µM |
| O=C(O)CC[C@H](NC(=O)Nc1ccc(N(CCCl)CCCl)c(Cl)c1)C(=O)O | < 0.283 | – |
| CN(/N=N/c1ccc(C(N)=O)cc1)C(=O)N[C@@H](CCC(=O)O)C(=O)O | 0.107 | – |
| CN(C(=O)OCc1ccc(NC(=O)N[C@@H](CCC(=O)O)C(=O)O)cc1)c1ccc(N(CCI)CCI)cc1 | < 0.0667 | – |
| CCOC(=O)c1ccc(/N=N/N(C)C(=O)N[C@@H](CCC(=O)OC)C(=O)OC)cc1 | 102 | – |
| O=C(O)CC[C@H](NC(=O)Nc1ccc(N(CCCl)CCCl)c(F)c1)C(=O)O | < 0.283 | – |
| CN(/N=N/c1ccc(C#N)cc1)C(=O)N[C@@H](CCC(=O)O)C(=O)O | 2.17 | Km (Pseudomonas sp. [2]): 17.7 µM; Vmax (Pseudomonas sp. [2]): 4.94 µM/min; kcat (Pseudomonas sp. [2]): 4.64 s⁻¹; T1/2 (Pseudomonas sp. [3]): 3.5 min; kcat/Km (Pseudomonas sp. [4]): 260000 M⁻¹ s⁻¹ |
